Experiments:
U87-MG = experiment: Cellular proliferation assay (Alamar blue), U87-MG; type: cell-based; details: Homo sapiens, U-87 MG; U87-MG cells; 10% FCS; 72 h with compound; Alamar blue 6 h; read-out: pIC50 U87MG (converted)
In short: (§1)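 Read-out: resazurin-based Alamar blue fluorescence at 544/590 nm, with dye left 24 h on PC3 and A2780, 6 h on U87-MG and 4 h on HCT-116. Beforehand, cells grew 24 h compound-free, then 72 h with compound, in 10% FCS at 37° C./5% CO2. Values are expressed against untreated controls.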

HCT-116 = experiment: Cellular proliferation assay (Alamar blue), HCT-116; type: cell-based; details: Homo sapiens; HCT-116 cells; 10% FCS; 72 h with compound; Alamar blue 4 h; read-out: pIC50 HCT-116 (converted)
In short: as §1

PLK4 (h) = target: T1, PLK4 (h) (Homo sapiens, UniProt O00444); experiment: PLK-4 human kinase scintillation proximity assay (SPA); type: biochemical; details: 1 μM ATP, 60 minutes at r.t., read-out: PLK4 pIC50 (converted)
T1 sequence (O00444 1-970): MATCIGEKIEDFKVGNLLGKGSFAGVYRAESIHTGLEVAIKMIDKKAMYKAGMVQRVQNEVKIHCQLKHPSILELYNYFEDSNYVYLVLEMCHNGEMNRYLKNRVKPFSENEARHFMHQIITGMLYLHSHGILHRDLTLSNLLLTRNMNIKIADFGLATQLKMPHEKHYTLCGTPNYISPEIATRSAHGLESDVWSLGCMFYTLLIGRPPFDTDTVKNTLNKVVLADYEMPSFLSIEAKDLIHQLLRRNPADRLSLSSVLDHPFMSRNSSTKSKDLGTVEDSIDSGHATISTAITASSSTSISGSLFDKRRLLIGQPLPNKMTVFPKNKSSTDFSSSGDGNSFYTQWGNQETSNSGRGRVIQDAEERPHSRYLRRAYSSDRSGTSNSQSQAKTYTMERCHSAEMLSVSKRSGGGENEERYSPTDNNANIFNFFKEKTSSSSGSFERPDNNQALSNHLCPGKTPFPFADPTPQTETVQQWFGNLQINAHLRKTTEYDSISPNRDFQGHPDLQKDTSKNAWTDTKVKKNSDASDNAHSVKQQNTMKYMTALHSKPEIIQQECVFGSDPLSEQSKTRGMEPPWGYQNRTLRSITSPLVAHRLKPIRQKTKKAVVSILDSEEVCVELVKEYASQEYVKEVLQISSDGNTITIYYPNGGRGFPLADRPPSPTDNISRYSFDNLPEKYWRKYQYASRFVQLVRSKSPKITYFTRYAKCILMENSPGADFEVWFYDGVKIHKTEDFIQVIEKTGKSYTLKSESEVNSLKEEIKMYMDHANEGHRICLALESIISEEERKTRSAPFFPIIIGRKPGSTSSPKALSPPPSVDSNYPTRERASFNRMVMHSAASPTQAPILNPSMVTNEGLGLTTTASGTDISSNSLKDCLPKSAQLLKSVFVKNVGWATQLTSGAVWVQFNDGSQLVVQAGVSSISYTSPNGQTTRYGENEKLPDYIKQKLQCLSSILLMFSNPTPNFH
In short: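 Scintillation proximity read-out: EDTA-stopped reactions were captured on streptavidin SPA beads after PLK4 (19 μg/ml) had phosphorylated 10 μM biotin-peptide for 60 min at room temperature, using 1 μM ATP spiked with 2 nM 33P-ATP in pH 8.0 HEPES buffer.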

MDA-MB-231 = experiment: Cellular proliferation assay (Alamar blue), MDA-MB-231; type: cell-based; details: Homo sapiens, MDA-MB-231, MDA-MB-231 cells; 10% FCS; 72 h with compound; Alamar blue 24 h; read-out: pIC50 MDA/MB231 (converted)
In short: (§2)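 Viable cell number is determined by Alamar blue conversion after cells are treated with compound for 72 hours, following 24 hours of growth without compound in 10% FCS. The effect is calculated against control cells.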

H1299 = experiment: Cellular proliferation assay (Alamar blue), H1299; type: cell-based; details: Homo sapiens, NCI-H1299, H1299 cells; 10% FCS; 72 h with compound; Alamar blue 4 h; read-out: pIC50 H1299 (converted)
In short: as §2

PC3 = experiment: Cellular proliferation assay (Alamar blue), PC3; type: cell-based; details: Homo sapiens, PC-3, PC-3 cells; 10% FCS; 72 h with compound; Alamar blue 24 h; read-out: pIC50 PC-3 (converted)
In short: as §1

A2780 = experiment: Cellular proliferation assay (Alamar blue), A2780; type: cell-based; details: Homo sapiens, A2780, A2780 cells; 10% FCS; 72 h with compound; Alamar blue 24 h; read-out: pIC50 A2780 (converted)
In short: as §1

Structure (SMILES)	IC50 (U87-MG) [µM]	IC50 (HCT-116) [µM]	IC50 (PLK4 (h)) [µM]	IC50 (MDA-MB-231) [µM]	IC50 (H1299) [µM]	IC50 (PC3) [µM]	IC50 (A2780) [µM]	melting point [°C]
COc1cc2cc(c1OC)CCC(=O)N(C)CCCN(C)Cc1c[nH]c3ncnc(c13)N2 [Compound 30]	> 10	> 10	> 10	> 10	> 10	> 10	> 10	
COc1ccc2cc1OCC(=O)NCC1CN(Cc3c[nH]c4ncnc(c34)N2)C1 [Compound 88]	10	5.01	0.501	> 10	> 10	> 10	> 10	
CN1CCN(C)C(=O)CCCCOc2cc(ccc2N2CCOCC2)Nc2ncnc3[nH]cc(c23)C1 [Compound 48]	> 10	> 10	> 10	> 3.16	> 10	> 10	> 10	
COc1ccc2cc1CN1CCCC(C1)C(=O)N(C)CCCc1c[nH]c3ncnc(c13)N2 (stereo not drawn) [Compound 35]	> 10	> 10	> 10	> 10	> 10	> 10	> 10	
COCCN1CC(=O)N(C)CCCc2c[nH]c3ncnc(c23)Nc2cc(c(OC)c(OC)c2)C1 [Compound 124]	> 10	> 10	> 10	> 10	> 10	> 10	> 10	
CN1CCCN(C)C(=O)COc2cc(ccc2Cl)Nc2ncnc3c2c(cn3C)C1 [Compound 146]	> 10	> 10	0.631	> 10	> 10	> 10	> 10	
CN1CCCN(C)C(=O)COc2cc(cc(C(F)(F)F)c2)Nc2ncnc3[nH]cc(c23)C1 [Compound 54]	> 10	> 10	0.251	> 10	> 10	> 10	> 10	
CN1CC(=O)NCCOc2cccc(c2)Nc2ncnc3[nH]cc(c23)C1 [Compound 23]	1.58	1.26	1.58	5.01	1	3.16	1	
CN1CCCN(C)C(=O)COc2cc(ccc2OCCNc2nccs2)Nc2ncnc3[nH]cc(c23)C1 [Compound 156]	1.26	0.631		3.16	2	3.16	0.501	238.4
COc1ccc2cc1OCC(=O)N(C)CCCNCc1c[nH]c3ncnc(c13)N2 [Compound 65]	> 10	> 10	0.0794	> 10	> 10	> 10	> 10	
CN1CCCN(C)C(=O)COc2cc(ccc2OCCN2CCOCC2)Nc2ncnc3[nH]cc(c23)C1 [Compound 126]	6.31	3.98	0.501	10	7.94	7.94	2	
COc1cc2cc(c1OC)OCC(=O)N(C)CCCN(C)Cc1c[nH]c3ncnc(c13)N2 [Compound 57]	> 10	> 10	3.98	> 10	> 10	> 10	> 10	

Reference: patent US8318731B2, “Pyrrolopyrimidines” (Janssen Pharmaceutica NV, priority 2007, dated 2012)
